Reference: US10738028B2, “Spiro three-membered ring, spiro five-membered ring peptide deformylase inhibitor and use thereof in antibacteria and anti-tumor” (priority 2016, dated 2020)
Values after ≈ are worked out from the molar mass of the structure shown.

What was measured:
Type in all cases: cell-based
[1] = test system: Moraxella catarrhalis (BCA); test: MIC, two-fold agar dilution (CLSI), clinical isolates
How it was run: (§1)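 MIC values come from two-fold agar dilution run per CLSI antimicrobial susceptibility testing procedure.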

[2] = test system: Streptococcus pneoumoniae (SPN); test: as above
How it was run: as §1

[3] = test system: methicillin-sensitive Staphylococcus epidermidis (MSSE); test: as above
How it was run: as §1

[4] = test system: Escherichia coli (including ESBLs, non-ESBLs); test: as above
How it was run: as §1

[5] = test system: methicillin-resistant Staphylococcus aureus (MRSA); test: as above
How it was run: as §1

[6] = test system: Enterococcus faecalis (EFA); test: as above
How it was run: as §1

[7] = test system: methicillin-resistant Staphylococcus epidermidis (MRSE); test: as above
How it was run: as §1

[8] = test system: methicillin-sensitive Staphylococcus aureus (MSSA); test: as above
How it was run: as §1

[9] = test system: Enterococcus faecium (EFM); test: as above
How it was run: as §1

[10] = test system: HCT-116 colorectal cancer cell line; test: CCK-8 proliferation inhibition; details: Homo sapiens, HCT-116, 72 h, concentration of 30 μM; 72 hours; CCK-8; read-out: HCT116 inhibition rate/%
How it was run: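 Cells were plated overnight at 2000 cells/well, then compound in culture medium was added at a range of final concentrations. After 72 hours in a CO2 incubator, medium was replaced with 1:10 CCK-8 solution for the read-out.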

CCCC[C@H](CC(=O)NO)C(=O)N1CC2(CC2)C[C@H]1C(=O)Nc1ccc(N2CCOCC2)cc1 [Example 43, (S)-5-((R)-2-(2-(hydroxyamino)-2-oxoethyl)hexanoyl)-N-(4-morpholinophenyl)-5-spiro[2.4]heptane-6-carboxamide]
Anti-bacterial activity (MIC), strain BCA 14-1 ([1]; clinical isolate BCA 14-1): 2 µg/mL | Anti-bacterial activity (MIC), strain BCA 14-4 ([1]; clinical isolate BCA 14-4): 2 µg/mL | Anti-bacterial activity (MIC), strain BCA 14-5 ([1]; clinical isolate BCA 14-5): 1 µg/mL | Anti-bacterial activity (MIC), strain BCA 14-6 ([1]; clinical isolate BCA 14-6): 1 µg/mL | Anti-bacterial activity (MIC), strain BCA 14-7 ([1]; clinical isolate BCA 14-7): 2 µg/mL | Anti-bacterial activity (MIC), strain BCA 14-8 ([1]; clinical isolate BCA 14-8): 2 µg/mL | Anti-bacterial activity (MIC), strain BCA 14-10 ([1]; clinical isolate BCA 14-10): 2 µg/mL | Anti-bacterial activity (MIC), strain SPN 16-2 ([2]; clinical isolate SPN 16-2): 1 µg/mL | Anti-bacterial activity (MIC), strain SPN 16-4 ([2]; clinical isolate SPN 16-4): 1 µg/mL | Anti-bacterial activity (MIC), strain MSSE 15-3 ([3]; clinical isolate MSSE 15-3): 1 µg/mL | Anti-bacterial activity (MIC), strain MSSE 15-4 ([3]; clinical isolate MSSE 15-4): 1 µg/mL | Anti-bacterial activity (MIC), strain MSSE 15-5 ([3]; clinical isolate MSSE 15-5): 1 µg/mL | Anti-bacterial activity (MIC), strain MSSE 15-6 ([3]; clinical isolate MSSE 15-6): 1 µg/mL | Anti-bacterial activity (MIC), strain ECO+ 15-1 ([4]; clinical isolate ECO+ 15-1): 1 µg/mL | Anti-bacterial activity (MIC), strain ECO+ 15-2 ([4]; clinical isolate ECO+ 15-2): > 32 µg/mL | Anti-bacterial activity (MIC), strain ECO+ 15-3 ([4]; clinical isolate ECO+ 15-3): > 32 µg/mL | Anti-bacterial activity (MIC), strain ECO+ 15-4 ([4]; clinical isolate ECO+ 15-4): 1 µg/mL | Anti-bacterial activity (MIC), strain ECO− 15-1 ([4]; clinical isolate ECO− 15-1): > 32 µg/mL | Anti-bacterial activity (MIC), strain ECO− 15-2 ([4]; clinical isolate ECO− 15-2): > 32 µg/mL | Anti-bacterial activity (MIC), strain ECO− 15-3 ([4]; clinical isolate ECO− 15-3): > 32 µg/mL | Anti-bacterial activity (MIC), strain ECO− 15-4 ([4]; clinical isolate ECO− 15-4): > 32 µg/mL | Anti-bacterial activity (MIC), strain MRSA 15-1 ([5]; clinical isolate MRSA 15-1): 1 µg/mL | Anti-bacterial activity (MIC), strain MRSA 15-2 ([5]; clinical isolate MRSA 15-2): 4 µg/mL | Anti-bacterial activity (MIC), strain MRSA 15-3 ([5]; clinical isolate MRSA 15-3): 1 µg/mL | Anti-bacterial activity (MIC), strain MRSA 15-4 ([5]; clinical isolate MRSA 15-4): 4 µg/mL | Anti-bacterial activity (MIC), strain EFA 15-1 ([6]; clinical isolate EFA 15-1): > 32 µg/mL | Anti-bacterial activity (MIC), strain EFA 15-2 ([6]; clinical isolate EFA 15-2): > 32 µg/mL | Anti-bacterial activity (MIC), strain EFA 15-3 ([6]; clinical isolate EFA 15-3): > 32 µg/mL | Anti-bacterial activity (MIC), strain EFA 15-4 ([6]; clinical isolate EFA 15-4): > 32 µg/mL | Anti-bacterial activity (MIC), strain EFA 15-5 ([6]; clinical isolate EFA 15-5): > 32 µg/mL | Anti-bacterial activity (MIC), strain EFA 15-6 ([6]; clinical isolate EFA 15-6): > 32 µg/mL | Anti-bacterial activity (MIC), strain EFA 15-9 ([6]; clinical isolate EFA 15-9): > 32 µg/mL | Anti-bacterial activity (MIC), strain MRSE 15-1 ([7]; clinical isolate MRSE 15-1): 1 µg/mL | Anti-bacterial activity (MIC), strain MRSE 15-2 ([7]; clinical isolate MRSE 15-2): 4 µg/mL | Anti-bacterial activity (MIC), strain MRSE 15-3 ([7]; clinical isolate MRSE 15-3): 4 µg/mL | Anti-bacterial activity (MIC), strain MRSE 15-7 ([7]; clinical isolate MRSE 15-7): 1 µg/mL | Anti-bacterial activity (MIC), strain MSSA 15-3 ([8]; clinical isolate MSSA 15-3): 4 µg/mL | Anti-bacterial activity (MIC), strain MSSA 15-4 ([8]; clinical isolate MSSA 15-4): 4 µg/mL | Anti-bacterial activity (MIC), strain MSSA 15-5 ([8]; clinical isolate MSSA 15-5): 1 µg/mL | Anti-bacterial activity (MIC), strain MSSA 15-6 ([8]; clinical isolate MSSA 15-6): 4 µg/mL | Anti-bacterial activity (MIC), strain EFM 15-1 ([9]; clinical isolate EFM 15-1): > 32 µg/mL | Anti-bacterial activity (MIC), strain EFM 15-2 ([9]; clinical isolate EFM 15-2): > 32 µg/mL | Anti-bacterial activity (MIC), strain EFM 15-3 ([9]; clinical isolate EFM 15-3): > 32 µg/mL | Anti-bacterial activity (MIC), strain EFM 15-4 ([9]; clinical isolate EFM 15-4): > 32 µg/mL | Anti-bacterial activity (MIC), strain EFM 15-5 ([9]; clinical isolate EFM 15-5): 1 µg/mL | Anti-bacterial activity (MIC), strain EFM 15-6 ([9]; clinical isolate EFM 15-6): 2 µg/mL | inhibition at 30 µM [10]: 6%

CCCC[C@H](CN(O)C=O)C(=O)N1CC2(CC2)C[C@H]1C(=O)Nc1nc(C)cs1 [Example 19]
MIC (anti-bacterial activity) ([1]; strain BCA 14-1): 1 µg/mL (≈ 2.45 µM) | MIC (anti-bacterial activity) ([1]; strain BCA 14-4): 1 µg/mL (≈ 2.45 µM) | MIC (anti-bacterial activity) ([1]; strain BCA 14-5): 0.125 µg/mL (≈ 0.306 µM) | MIC (anti-bacterial activity) ([1]; strain BCA 14-6): 0.5 µg/mL (≈ 1.22 µM) | MIC (anti-bacterial activity) ([1]; strain BCA 14-7): 0.25 µg/mL (≈ 0.612 µM) | MIC (anti-bacterial activity) ([1]; strain BCA 14-8): 0.25 µg/mL (≈ 0.612 µM) | MIC (anti-bacterial activity) ([1]; strain BCA 14-10): 0.125 µg/mL (≈ 0.306 µM) | MIC (anti-bacterial activity) ([2]; strain SPN 16-2): 4 µg/mL (≈ 9.79 µM) | MIC (anti-bacterial activity) ([2]; strain SPN 16-4): 0.25 µg/mL (≈ 0.612 µM) | MIC (anti-bacterial activity) ([3]; strain MSSE 15-3): 0.125 µg/mL (≈ 0.306 µM) | MIC (anti-bacterial activity) ([3]; strain MSSE 15-4): 0.125 µg/mL (≈ 0.306 µM) | MIC (anti-bacterial activity) ([3]; strain MSSE 15-5): 0.03 µg/mL (≈ 0.0734 µM) | MIC (anti-bacterial activity) ([3]; strain MSSE 15-6): 0.015 µg/mL (≈ 0.0367 µM) | MIC (anti-bacterial activity) ([4]; strain ECO+ 15-1): 32 µg/mL (≈ 78.3 µM) | MIC (anti-bacterial activity) ([4]; strain ECO+ 15-2): > 32 µg/mL | MIC (anti-bacterial activity) ([4]; strain ECO+ 15-3): > 32 µg/mL | MIC (anti-bacterial activity) ([4]; strain ECO+ 15-4): > 32 µg/mL | MIC (anti-bacterial activity) ([4]; strain ECO− 15-1): > 32 µg/mL | MIC (anti-bacterial activity) ([4]; strain ECO− 15-2): > 32 µg/mL | MIC (anti-bacterial activity) ([4]; strain ECO− 15-3): > 32 µg/mL | MIC (anti-bacterial activity) ([4]; strain ECO− 15-4): > 32 µg/mL | MIC (anti-bacterial activity) ([5]; strain MRSA 15-1): 0.125 µg/mL (≈ 0.306 µM) | MIC (anti-bacterial activity) ([5]; strain MRSA 15-2): 0.125 µg/mL (≈ 0.306 µM) | MIC (anti-bacterial activity) ([5]; strain MRSA 15-3): 0.03 µg/mL (≈ 0.0734 µM) | MIC (anti-bacterial activity) ([5]; strain MRSA 15-4): 0.25 µg/mL (≈ 0.612 µM) | MIC (anti-bacterial activity) ([6]; strain EFA 15-1): 8 µg/mL (≈ 19.6 µM) | MIC (anti-bacterial activity) ([6]; strain EFA 15-2): 8 µg/mL (≈ 19.6 µM) | MIC (anti-bacterial activity) ([6]; strain EFA 15-3): 8 µg/mL (≈ 19.6 µM) | MIC (anti-bacterial activity) ([6]; strain EFA 15-4): 8 µg/mL (≈ 19.6 µM) | MIC (anti-bacterial activity) ([6]; strain EFA 15-5): 8 µg/mL (≈ 19.6 µM) | MIC (anti-bacterial activity) ([6]; strain EFA 15-6): 8 µg/mL (≈ 19.6 µM) | MIC (anti-bacterial activity) ([6]; strain EFA 15-9): 8 µg/mL (≈ 19.6 µM) | MIC (anti-bacterial activity) ([7]; strain MRSE 15-1): 0.06 µg/mL (≈ 0.147 µM) | MIC (anti-bacterial activity) ([7]; strain MRSE 15-2): 0.125 µg/mL (≈ 0.306 µM) | MIC (anti-bacterial activity) ([7]; strain MRSE 15-3): 0.125 µg/mL (≈ 0.306 µM) | MIC (anti-bacterial activity) ([7]; strain MRSE 15-7): 0.125 µg/mL (≈ 0.306 µM) | MIC (anti-bacterial activity) ([8]; strain MSSA 15-3): 0.125 µg/mL (≈ 0.306 µM) | MIC (anti-bacterial activity) ([8]; strain MSSA 15-4): 0.125 µg/mL (≈ 0.306 µM) | MIC (anti-bacterial activity) ([8]; strain MSSA 15-5): 0.03 µg/mL (≈ 0.0734 µM) | MIC (anti-bacterial activity) ([8]; strain MSSA 15-6): 0.25 µg/mL (≈ 0.612 µM) | MIC (anti-bacterial activity) ([9]; strain EFM 15-1): 8 µg/mL (≈ 19.6 µM) | MIC (anti-bacterial activity) ([9]; strain EFM 15-2): 4 µg/mL (≈ 9.79 µM) | MIC (anti-bacterial activity) ([9]; strain EFM 15-3): 0.25 µg/mL (≈ 0.612 µM) | MIC (anti-bacterial activity) ([9]; strain EFM 15-4): 2 µg/mL (≈ 4.9 µM) | MIC (anti-bacterial activity) ([9]; strain EFM 15-5): 0.25 µg/mL (≈ 0.612 µM) | MIC (anti-bacterial activity) ([9]; strain EFM 15-6): 2 µg/mL (≈ 4.9 µM) | inhibition at 30 µM [10]: 6%
